pIC50: −log10 of the molar value. Activity calls are given as the source filed them. No cut-off for these calls is given here.
Key:
Acetylcholinesterase = Acetylcholinesterase (Electrophorus electricus, UniProt O42275); test: Inhibition of Electric eel AChE using acetylthiocholine iodide as substrate preincubated for 10 mins followed by addition of substrate and measured after 15 mins by Ellman's method
Cholinesterase = Cholinesterase (Equus caballus, UniProt P81908); test: Inhibition of equine serum BChE using butyrylthiocholine iodide as substrate preincubated for 10 mins followed by addition of substrate and measured after 15 mins by Ellman's method; assay type: cell-free
[1] = target: Amyloid-beta precursor protein (Homo sapiens, UniProt P05067); test: Inhibition of human amyloid beta (1 to 42) self-induced aggregation measured after 48 hrs by ThT flourescence assay
[2] = Selectivity index, ratio of IC50 for equine serum BChE to IC50 for electric eel AChE
[3] = target: Acetylcholinesterase (Homo sapiens) (UniProt P22303); test: Inhibition of AChE (unknown origin)-induced amyloid beta (1 to 42) aggregation at 1 to 5 uM measured after 24 hrs by ThT flourescence assay; conditions: dose 1-5 µM
[4] = target: Acetylcholinesterase (Electrophorus electricus) (UniProt O42275); test: Non-competitive/mixed inhibition of electric eel AChE using varying concentrations of acetylthiocholine iodide as substrate at 0.16 to 0.64 uM measured every 2 mins for 10 mins by Lineweaver-Burk plot analysis; conditions: dose 0.16-0.64 µM
Sequence of Acetylcholinesterase (Electrophorus electricus) (O42275 24-633 limits assumed): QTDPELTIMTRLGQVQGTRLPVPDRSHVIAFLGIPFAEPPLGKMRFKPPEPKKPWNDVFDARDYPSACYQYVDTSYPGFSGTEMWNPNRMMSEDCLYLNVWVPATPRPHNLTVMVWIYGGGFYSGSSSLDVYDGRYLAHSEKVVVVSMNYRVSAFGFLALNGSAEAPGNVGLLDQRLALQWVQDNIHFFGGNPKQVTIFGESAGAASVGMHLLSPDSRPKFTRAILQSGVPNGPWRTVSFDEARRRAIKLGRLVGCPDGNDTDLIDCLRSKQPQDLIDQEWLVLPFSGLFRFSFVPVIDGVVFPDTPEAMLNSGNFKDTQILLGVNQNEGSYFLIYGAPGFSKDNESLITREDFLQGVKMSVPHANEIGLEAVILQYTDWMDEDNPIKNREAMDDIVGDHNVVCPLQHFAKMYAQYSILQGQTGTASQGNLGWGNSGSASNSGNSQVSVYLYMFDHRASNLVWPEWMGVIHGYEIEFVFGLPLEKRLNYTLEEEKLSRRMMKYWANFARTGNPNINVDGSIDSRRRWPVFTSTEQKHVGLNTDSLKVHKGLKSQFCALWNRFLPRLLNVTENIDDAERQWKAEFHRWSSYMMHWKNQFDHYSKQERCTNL

Sequence of Cholinesterase (P81908 whole entry): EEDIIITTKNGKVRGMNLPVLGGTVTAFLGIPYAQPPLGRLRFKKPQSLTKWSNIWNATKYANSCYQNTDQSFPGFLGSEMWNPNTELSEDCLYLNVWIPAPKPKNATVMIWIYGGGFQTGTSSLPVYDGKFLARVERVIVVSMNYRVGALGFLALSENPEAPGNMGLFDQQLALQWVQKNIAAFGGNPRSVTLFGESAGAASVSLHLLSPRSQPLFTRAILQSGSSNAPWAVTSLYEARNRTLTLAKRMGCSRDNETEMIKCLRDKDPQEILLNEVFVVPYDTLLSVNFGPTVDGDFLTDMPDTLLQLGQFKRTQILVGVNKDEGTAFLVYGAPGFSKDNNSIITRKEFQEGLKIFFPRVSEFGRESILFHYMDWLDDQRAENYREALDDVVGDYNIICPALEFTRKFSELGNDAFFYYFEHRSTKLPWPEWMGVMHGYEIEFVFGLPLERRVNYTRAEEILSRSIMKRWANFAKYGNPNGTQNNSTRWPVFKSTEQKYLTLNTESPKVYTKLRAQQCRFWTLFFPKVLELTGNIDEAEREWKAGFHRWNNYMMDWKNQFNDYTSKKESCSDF
Sequence of Acetylcholinesterase (O42275 whole entry): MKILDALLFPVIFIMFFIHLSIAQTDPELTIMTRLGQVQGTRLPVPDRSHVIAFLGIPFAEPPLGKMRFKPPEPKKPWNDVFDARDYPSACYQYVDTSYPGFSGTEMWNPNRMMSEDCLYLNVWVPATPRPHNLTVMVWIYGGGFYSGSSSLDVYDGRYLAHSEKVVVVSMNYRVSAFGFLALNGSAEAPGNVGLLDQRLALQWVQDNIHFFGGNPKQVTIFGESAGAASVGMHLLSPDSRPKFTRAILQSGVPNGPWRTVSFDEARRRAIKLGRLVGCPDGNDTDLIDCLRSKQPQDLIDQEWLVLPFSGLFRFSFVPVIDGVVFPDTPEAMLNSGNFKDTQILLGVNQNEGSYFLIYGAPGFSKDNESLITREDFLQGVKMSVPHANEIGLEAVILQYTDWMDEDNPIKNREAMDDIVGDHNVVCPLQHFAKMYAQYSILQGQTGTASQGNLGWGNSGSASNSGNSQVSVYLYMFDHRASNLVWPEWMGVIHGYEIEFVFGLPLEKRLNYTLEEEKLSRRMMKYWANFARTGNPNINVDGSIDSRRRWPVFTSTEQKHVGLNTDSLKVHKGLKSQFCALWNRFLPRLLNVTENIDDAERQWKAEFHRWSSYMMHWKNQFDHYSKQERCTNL
Sequence of Acetylcholinesterase (Homo sapiens) (P22303 whole entry): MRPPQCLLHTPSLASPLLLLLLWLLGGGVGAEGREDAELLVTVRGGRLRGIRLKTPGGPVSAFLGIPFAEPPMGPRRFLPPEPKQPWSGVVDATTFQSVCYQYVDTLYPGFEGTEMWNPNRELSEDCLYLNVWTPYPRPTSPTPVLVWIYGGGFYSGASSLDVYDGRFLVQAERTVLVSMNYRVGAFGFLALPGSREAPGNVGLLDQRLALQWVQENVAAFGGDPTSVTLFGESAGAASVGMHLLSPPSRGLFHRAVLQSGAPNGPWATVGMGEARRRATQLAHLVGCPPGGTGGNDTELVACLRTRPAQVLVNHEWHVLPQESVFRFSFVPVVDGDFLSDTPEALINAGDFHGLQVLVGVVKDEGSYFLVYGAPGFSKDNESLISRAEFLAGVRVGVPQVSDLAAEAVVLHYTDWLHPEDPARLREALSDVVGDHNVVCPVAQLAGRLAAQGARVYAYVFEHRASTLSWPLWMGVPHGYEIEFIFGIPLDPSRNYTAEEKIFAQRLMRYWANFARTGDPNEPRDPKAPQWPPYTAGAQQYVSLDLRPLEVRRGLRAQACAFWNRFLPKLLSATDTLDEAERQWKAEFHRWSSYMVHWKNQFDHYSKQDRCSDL
Sequence of Amyloid-beta precursor protein (P05067 whole entry): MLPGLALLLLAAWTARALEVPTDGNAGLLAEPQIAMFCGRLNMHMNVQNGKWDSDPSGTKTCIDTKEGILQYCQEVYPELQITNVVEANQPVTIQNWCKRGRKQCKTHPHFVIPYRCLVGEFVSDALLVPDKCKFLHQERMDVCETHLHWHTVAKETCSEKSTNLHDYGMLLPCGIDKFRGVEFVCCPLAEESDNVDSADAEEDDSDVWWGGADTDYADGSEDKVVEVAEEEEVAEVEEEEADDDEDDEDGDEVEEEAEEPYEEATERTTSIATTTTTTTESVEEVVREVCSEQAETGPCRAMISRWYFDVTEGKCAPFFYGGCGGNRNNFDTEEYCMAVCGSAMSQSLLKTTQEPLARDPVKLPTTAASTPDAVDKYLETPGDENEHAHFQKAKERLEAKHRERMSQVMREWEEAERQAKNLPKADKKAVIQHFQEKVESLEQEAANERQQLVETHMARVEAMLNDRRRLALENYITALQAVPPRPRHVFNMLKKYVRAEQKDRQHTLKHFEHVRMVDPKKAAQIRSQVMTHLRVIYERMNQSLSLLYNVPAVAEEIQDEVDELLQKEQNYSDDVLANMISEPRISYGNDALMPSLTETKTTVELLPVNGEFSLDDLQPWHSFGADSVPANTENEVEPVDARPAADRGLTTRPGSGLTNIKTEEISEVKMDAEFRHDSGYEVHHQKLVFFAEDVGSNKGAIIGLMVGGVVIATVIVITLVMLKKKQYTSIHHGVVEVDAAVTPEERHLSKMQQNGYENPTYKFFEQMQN

Cc1cc2nc3n(c(=O)c2cc1NCc1cc(Br)ccc1O)CCC3
pIC50 (Acetylcholinesterase): 5.28
pIC50 (Cholinesterase): 4.68
pIC50 [1]: 5.13
Ratio IC50 [2]: 3.95

COc1cccc(CNc2cc3c(=O)n4c(nc3cc2C)CCC4)c1O
pIC50 (Acetylcholinesterase): 6.08
pIC50 (Cholinesterase): 4.79
inhibition [3]: 55%
pIC50 [1]: 5.37
Ratio IC50 [2]: 19.5

COc1cccc(CNc2ccc3nc4n(c(=O)c3c2)CCC4)c1O
pIC50 (Acetylcholinesterase): 6.05
pIC50 (Cholinesterase): 4.79
inhibition [3]: 55.1%
pIC50 [1]: 5.38
Ratio IC50 [2]: 17.8

O=c1c2cc(NCc3ccccc3O)ccc2nc2n1CCC2
pIC50 (Acetylcholinesterase): 5.82
pIC50 (Cholinesterase): 4.74
inhibition [3]: 49%
pIC50 [1]: 5.33
Ratio IC50 [2]: 11.9

COc1ccc(CNc2cc3c(=O)n4c(nc3cc2C)CCC4)c(O)c1
pIC50 (Acetylcholinesterase): 6.47
pIC50 (Cholinesterase): 4.84
inhibition [3]: 72.6%
pIC50 [1]: 5.49
inhibition [4]: Active
Ratio IC50 [2]: 42.9

Cc1cc2nc3n(c(=O)c2cc1NCc1cccc(Br)c1O)CCC3
pIC50 (Acetylcholinesterase): 5.20
pIC50 (Cholinesterase): 4.67
pIC50 [1]: 5.03
Ratio IC50 [2]: 3.4

O=c1c2cc(NCc3cc(Br)ccc3O)ccc2nc2n1CCC2
pIC50 (Acetylcholinesterase): 5.26
pIC50 (Cholinesterase): 4.67
pIC50 [1]: 5.12
Ratio IC50 [2]: 3.9

Oc1c(I)cc(Cl)c2cccnc12 [CLIOQUINOL]
inhibition [3]: 11.5%
pIC50 [1]: 5.01

O=c1c2cc(NCc3cccc(Br)c3O)ccc2nc2n1CCC2
pIC50 (Acetylcholinesterase): 5.24
pIC50 (Cholinesterase): 4.68
pIC50 [1]: 5.08
Ratio IC50 [2]: 3.6

Cc1cc2nc3n(c(=O)c2cc1NCc1cc(F)ccc1O)CCC3
pIC50 (Acetylcholinesterase): 5.57
pIC50 (Cholinesterase): 4.69
pIC50 [1]: 5.20
Ratio IC50 [2]: 7.56

COc1ccc(CNc2ccc3nc4n(c(=O)c3c2)CCC4)c(O)c1
pIC50 (Acetylcholinesterase): 6.42
pIC50 (Cholinesterase): 4.81
inhibition [3]: 68.7%
pIC50 [1]: 5.41
Ratio IC50 [2]: 40.5

O=c1c2cc(NCc3cc(F)ccc3O)ccc2nc2n1CCC2
pIC50 (Acetylcholinesterase): 5.60
pIC50 (Cholinesterase): 4.70
pIC50 [1]: 5.20
Ratio IC50 [2]: 7.91

Cc1cc2nc3n(c(=O)c2cc1NCc1ccc(Cl)cc1O)CCC3
pIC50 (Acetylcholinesterase): 5.51
pIC50 (Cholinesterase): 4.69
pIC50 [1]: 5.21
Ratio IC50 [2]: 6.68

Cc1cc2nc3n(c(=O)c2cc1NCc1ccccc1O)CCC3
pIC50 (Acetylcholinesterase): 5.80
pIC50 (Cholinesterase): 4.73
inhibition [3]: 40.2%
pIC50 [1]: 5.29
Ratio IC50 [2]: 11.7

O=c1c2cc(NCc3ccc(Cl)cc3O)ccc2nc2n1CCC2
pIC50 (Acetylcholinesterase): 5.32
pIC50 (Cholinesterase): 4.66
pIC50 [1]: 5.15
Ratio IC50 [2]: 4.52

O=c1c2ccccc2nc2n1CCC2 [DEOXYVASICINONE]
pIC50 (Acetylcholinesterase): 4.62
pIC50 (Cholinesterase): 4.60
inhibition [3]: 3.83%

— ChEMBL document CHEMBL4834473, “Novel hydroxybenzylamine-deoxyvasicinone hybrids as anticholinesterase therapeutics for Alzheimer's disease” (Bioorg Med Chem, 2021)
